In PubChem BioAssay (NCI):
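Dose response: 5 concentrations. Exposure: 48 h. Format: 96-well plates. Endpoint: linear interpolation; highest concentration if not reached. TGI marks complete inhibition of growth.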

Experiments:
Assay in all cases: inhibition of tumour cell growth, NCI panel, 48 h
DMS 273 small cell lung = tested on: DMS 273 small cell lung
786-0 renal = tested on: 786-0 renal
CCRF-CEM leukemia = tested on: CCRF-CEM leukemia
SNB-19 CNS = tested on: SNB-19 CNS
IGROV1 ovarian = tested on: IGROV1 ovarian
RPMI-8226 leukemia = tested on: RPMI-8226 leukemia
SK-MEL-5 melanoma = tested on: SK-MEL-5 melanoma
OVCAR-8 ovarian = tested on: OVCAR-8 ovarian
OVCAR-3 ovarian = tested on: OVCAR-3 ovarian
LOX IMVI melanoma = tested on: LOX IMVI melanoma
NCI-H23 lung = tested on: NCI-H23 lung
DMS 114 small cell lung = tested on: DMS 114 small cell lung
A549 NSCLC = tested on: A549 NSCLC
K-562 leukemia = tested on: K-562 leukemia
SN12C renal = tested on: SN12C renal
EKVX NSCLC = tested on: EKVX NSCLC
COLO 205 colon = tested on: COLO 205 colon
A498 renal = tested on: A498 renal
NCI-H522 lung = tested on: NCI-H522 lung
SF-295 CNS = tested on: SF-295 CNS
SK-MEL-28 melanoma = tested on: SK-MEL-28 melanoma
SF-539 CNS = tested on: SF-539 CNS
HOP-92 NSCLC = tested on: HOP-92 NSCLC
HCC-2998 colon = tested on: HCC-2998 colon
ACHN renal = tested on: ACHN renal
SNB-78 CNS = tested on: SNB-78 CNS
TK-10 renal = tested on: TK-10 renal
HOP-18 NSCLC = tested on: HOP-18 NSCLC
SF-268 CNS = tested on: SF-268 CNS
RXF 393 renal = tested on: RXF 393 renal
SNB-75 CNS = tested on: SNB-75 CNS
HL-60(TB) leukemia = tested on: HL-60(TB) leukemia
SK-OV-3 ovarian = tested on: SK-OV-3 ovarian
U251 CNS = tested on: U251 CNS
SW-620 colon = tested on: SW-620 colon
UACC-62 melanoma = tested on: UACC-62 melanoma
OVCAR-5 ovarian = tested on: OVCAR-5 ovarian
KM20L2 colon = tested on: KM20L2 colon
HOP-62 NSCLC = tested on: HOP-62 NSCLC
SK-MEL-2 melanoma = tested on: SK-MEL-2 melanoma
MALME-3M melanoma = tested on: MALME-3M melanoma
CAKI-1 renal = tested on: CAKI-1 renal
MOLT-4 leukemia = tested on: MOLT-4 leukemia
DLD-1 colon = tested on: DLD-1 colon
HCT-15 colon = tested on: HCT-15 colon
UO-31 renal = tested on: UO-31 renal
NCI-H460 lung = tested on: NCI-H460 lung
KM12 colon = tested on: KM12 colon
M19-MEL melanoma = tested on: M19-MEL melanoma
UACC-257 melanoma = tested on: UACC-257 melanoma
M14 melanoma = tested on: M14 melanoma
HT29 colon = tested on: HT29 colon
NCI-H226 lung = tested on: NCI-H226 lung
HCT-116 colon = tested on: HCT-116 colon
LXFL 529 NSCLC = tested on: LXFL 529 NSCLC
SR leukemia = tested on: SR leukemia
OVCAR-4 ovarian = tested on: OVCAR-4 ovarian

With COc1ccc(/C=C/C(=O)c2sc(NC(=S)NC(=O)c3ccccc3F)nc2C)cc1OC the TGI (DMS 273 small cell lung) was > 100 µM, the TGI (786-0 renal) was > 100 µM and the TGI (CCRF-CEM leukemia) was > 100 µM. For the same molecule, the TGI (SNB-19 CNS) was > 100 µM, the TGI (IGROV1 ovarian) was > 100 µM and the TGI (RPMI-8226 leukemia) was > 100 µM. For the same molecule, the TGI (SK-MEL-5 melanoma) was > 100 µM, the TGI (OVCAR-8 ovarian) was > 100 µM and the TGI (OVCAR-3 ovarian) was > 100 µM. The TGI (LOX IMVI melanoma) was > 100 µM, the TGI (NCI-H23 lung) was > 100 µM and the TGI (DMS 114 small cell lung) was > 100 µM. For the same molecule, the TGI (A549 NSCLC) was > 100 µM, the TGI (K-562 leukemia) was > 100 µM and the TGI (SN12C renal) was > 100 µM. The TGI (EKVX NSCLC) was > 100 µM, the TGI (COLO 205 colon) was > 100 µM and the TGI (A498 renal) was > 100 µM. The TGI (NCI-H522 lung) was 63.9 µM, the TGI (SF-295 CNS) was > 100 µM and the TGI (SK-MEL-28 melanoma) was > 100 µM. For the same molecule, the TGI (SF-539 CNS) was > 100 µM, the TGI (HOP-92 NSCLC) was > 100 µM and the TGI (HCC-2998 colon) was > 100 µM. The TGI (ACHN renal) was > 100 µM, the TGI (SNB-78 CNS) was > 100 µM and the TGI (TK-10 renal) was > 100 µM. For the same molecule, the TGI (HOP-18 NSCLC) was > 100 µM, the TGI (SF-268 CNS) was > 100 µM and the TGI (RXF 393 renal) was > 100 µM. For the same molecule, the TGI (SNB-75 CNS) was > 100 µM, the TGI (HL-60(TB) leukemia) was > 100 µM and the TGI (SK-OV-3 ovarian) was > 100 µM. The TGI (U251 CNS) was > 100 µM, the TGI (SW-620 colon) was > 100 µM and the TGI (UACC-62 melanoma) was > 100 µM. The TGI (OVCAR-5 ovarian) was > 100 µM, the TGI (KM20L2 colon) was > 100 µM and the TGI (HOP-62 NSCLC) was > 100 µM. The TGI (SK-MEL-2 melanoma) was > 100 µM, the TGI (MALME-3M melanoma) was > 100 µM and the TGI (CAKI-1 renal) was > 100 µM. For the same molecule, the TGI (MOLT-4 leukemia) was > 100 µM, the TGI (DLD-1 colon) was > 100 µM and the TGI (HCT-15 colon) was > 100 µM. The TGI (UO-31 renal) was > 100 µM, the TGI (NCI-H460 lung) was > 100 µM and the TGI (KM12 colon) was > 100 µM. The TGI (M19-MEL melanoma) was > 100 µM.

O=C(Nc1ccn(CCOC(=O)c2ccccc2)c(=O)n1)c1ccccc1 was tested, and the TGI (DMS 273 small cell lung) was > 100 µM, the TGI (786-0 renal) was > 100 µM and the TGI (UACC-257 melanoma) was > 100 µM. The TGI (M14 melanoma) was > 100 µM, the TGI (HT29 colon) was > 100 µM and the TGI (CCRF-CEM leukemia) was > 100 µM. For the same molecule, the TGI (NCI-H226 lung) was > 100 µM, the TGI (IGROV1 ovarian) was > 100 µM and the TGI (RPMI-8226 leukemia) was > 100 µM. For the same molecule, the TGI (SK-MEL-5 melanoma) was > 100 µM, the TGI (OVCAR-8 ovarian) was > 100 µM and the TGI (OVCAR-3 ovarian) was > 100 µM. The TGI (LOX IMVI melanoma) was > 100 µM, the TGI (DMS 114 small cell lung) was > 100 µM and the TGI (A549 NSCLC) was > 100 µM. For the same molecule, the TGI (HCT-116 colon) was > 100 µM, the TGI (K-562 leukemia) was > 100 µM and the TGI (SN12C renal) was > 100 µM. The TGI (EKVX NSCLC) was > 100 µM, the TGI (COLO 205 colon) was > 100 µM and the TGI (A498 renal) was > 100 µM. The TGI (LXFL 529 NSCLC) was > 100 µM, the TGI (NCI-H522 lung) was > 100 µM and the TGI (SF-295 CNS) was > 100 µM. The TGI (SR leukemia) was > 100 µM, the TGI (SK-MEL-28 melanoma) was > 100 µM and the TGI (SF-539 CNS) was > 100 µM. For the same molecule, the TGI (HOP-92 NSCLC) was > 100 µM, the TGI (ACHN renal) was > 100 µM and the TGI (SNB-78 CNS) was > 100 µM. The TGI (TK-10 renal) was > 100 µM, the TGI (HOP-18 NSCLC) was > 100 µM and the TGI (SF-268 CNS) was > 100 µM. The TGI (RXF 393 renal) was > 100 µM, the TGI (SNB-75 CNS) was > 100 µM and the TGI (HL-60(TB) leukemia) was > 100 µM. For the same molecule, the TGI (SK-OV-3 ovarian) was > 100 µM, the TGI (OVCAR-4 ovarian) was > 100 µM and the TGI (U251 CNS) was > 100 µM. For the same molecule, the TGI (SW-620 colon) was > 100 µM, the TGI (UACC-62 melanoma) was > 100 µM and the TGI (OVCAR-5 ovarian) was > 100 µM. For the same molecule, the TGI (KM20L2 colon) was > 100 µM, the TGI (HOP-62 NSCLC) was > 100 µM and the TGI (SK-MEL-2 melanoma) was > 100 µM. For the same molecule, the TGI (MALME-3M melanoma) was > 100 µM, the TGI (CAKI-1 renal) was > 100 µM and the TGI (HCT-15 colon) was > 100 µM. For the same molecule, the TGI (UO-31 renal) was > 100 µM, the TGI (NCI-H460 lung) was > 100 µM and the TGI (KM12 colon) was > 100 µM. For the same molecule, the TGI (M19-MEL melanoma) was > 100 µM.

For COc1ccc(CC#N)c(OCc2ccccc2)c1, the TGI (DMS 273 small cell lung) was > 100 µM, the TGI (786-0 renal) was > 100 µM and the TGI (UACC-257 melanoma) was > 100 µM. For the same molecule, the TGI (M14 melanoma) was > 100 µM, the TGI (CCRF-CEM leukemia) was > 100 µM and the TGI (NCI-H226 lung) was 66 µM. For the same molecule, the TGI (SNB-19 CNS) was > 100 µM, the TGI (IGROV1 ovarian) was > 100 µM and the TGI (RPMI-8226 leukemia) was > 100 µM. For the same molecule, the TGI (SK-MEL-5 melanoma) was 50.6 µM, the TGI (OVCAR-8 ovarian) was > 100 µM and the TGI (OVCAR-3 ovarian) was > 100 µM. The TGI (LOX IMVI melanoma) was > 100 µM, the TGI (NCI-H23 lung) was > 100 µM and the TGI (DMS 114 small cell lung) was > 100 µM. For the same molecule, the TGI (A549 NSCLC) was > 100 µM, the TGI (HCT-116 colon) was > 100 µM and the TGI (K-562 leukemia) was > 100 µM. For the same molecule, the TGI (SN12C renal) was > 100 µM, the TGI (EKVX NSCLC) was > 100 µM and the TGI (COLO 205 colon) was > 100 µM. The TGI (A498 renal) was 59.4 µM, the TGI (LXFL 529 NSCLC) was 67 µM and the TGI (NCI-H522 lung) was > 100 µM. The TGI (SF-295 CNS) was > 100 µM, the TGI (SR leukemia) was > 100 µM and the TGI (SK-MEL-28 melanoma) was 84.6 µM. For the same molecule, the TGI (SF-539 CNS) was > 100 µM, the TGI (HCC-2998 colon) was > 100 µM and the TGI (ACHN renal) was > 100 µM. For the same molecule, the TGI (HOP-18 NSCLC) was 79.3 µM, the TGI (SF-268 CNS) was > 100 µM and the TGI (OVCAR-4 ovarian) was > 100 µM. For the same molecule, the TGI (SW-620 colon) was > 100 µM, the TGI (UACC-62 melanoma) was > 100 µM and the TGI (KM20L2 colon) was > 100 µM. For the same molecule, the TGI (HOP-62 NSCLC) was > 100 µM, the TGI (MALME-3M melanoma) was 79 µM and the TGI (CAKI-1 renal) was > 100 µM. For the same molecule, the TGI (MOLT-4 leukemia) was > 100 µM, the TGI (DLD-1 colon) was 85 µM and the TGI (UO-31 renal) was > 100 µM. The TGI (NCI-H460 lung) was > 100 µM, the TGI (KM12 colon) was > 100 µM and the TGI (M19-MEL melanoma) was > 100 µM.
